{"source": "patent US10494402B2", "about": "“Peptides that stimulate subcutaneous adipogenesis” (The Regents of the University of California, priority 2012, dated 2019)", "key": {"[1]": {"tested_on": "rat mesenchymal stem cells", "assay": "Adipogenesis Assay 2 (dexamethasone/insulin/indomethacin induction, then peptide; Oil Red O or BODIPY)", "type": "cell-based", "settings": "Assay 2", "protocol": "Reagents: The dexamethasone, insulin, and Oil Red O solutions were the same as described above for assay 1. Indomethacin Solution contained 10 mM indomethacin in methanol. The BODIPY 493/503 dye was used at a concentration of 4 μM.\nAdipogenesis Maintenance Media was prepared as described above.\nAdipogenesis Induction Media: To prepare 501 mL of Adipogenesis Induction Media, 50 μL of the 10 mM stock solution of dexamethasone, 500 μL of the 10 mg/ml stock solution of insulin, 5 ml of a 10 mM stock solution of indomethacin, and 5 mL of a 100× stock solution of penicillin and streptomycin were added to 490 mL of mesenchymal stem cell expansion media.\nPre-adipocyte stem cells, bone marrow mesenchymal stem cells and fibroblasts such as dermal reticular and papillary fibroblasts were propagated using standard tissue culture methods. Cells were trypsinized to remove cells from the substratum, the trypsin was neutralized, and cells were counted using a hemocytometer. Cells were resuspended at 60,000 cells/ml in low glucose DMEM containing 10% calf serum. 1 mL of cell suspension per well was plated in a 24-well plate, with several wells left empty for blank well staining.\nCells were incubated overnight and had reached confluency at this point. Approximately 1.8 ml of media was removed from each well and replaced with 2 ml Adipogenesis Induction Media. For negative control wells, expansion medium only was used at this step and for subsequent media changes. For all media changes, media was replaced as gently as possible to avoid disturbing the monolayer.\nMedia was removed and replaced with 2 ml of maintenance medium containing either RHAMM antagonist peptides (experimental group) or insulin (concentration as in the induction medium used as positive control). […]\nMedia was removed and BODIPY or Oil Red O staining was performed as described above for assay 1.\nAs described above in Example 1, two different adipogenesis assays were used herein to assess the adipogenic effects of the peptides in rat mesenchymal stem cells. Assay 1 is an assay that is typically used to promote transdifferentiation of fibroblasts into adipocytes, whereas Assay 2 is typically used to promote differentiation of multi-potential mesenchymal progenitor cells into adipocytes. Immortalized rat bone marrow mesenchymal stem cells were used for both assays. These cells contain cells of different lineages, including fibroblasts, pre-adipocytes, pre-chondrocytes and pre-osteoblasts. Thus, Assay 1 was used to promote transdifferentiation of the fibroblast lineages into adipocytes and Assay 2 was used to promote differentiation of the pre-adipocytes into adipocytes.\nAs described in Example 1 above, the priming stimulus for Assay 1 includes IBMX (3-isobutyl-1-methylxanthine) and dexamethasone, and then insulin as the final adipogenic stimulus. The priming stimulus for assay 2 includes IBMX, dexamethasone and indomethacin, and then insulin as the final adipogenic stimulus."}, "Rat skin": {"tested_on": "Rat skin", "assay": "Rat dermal skin model of adipogenesis (injection into dermis)", "type": "in vivo", "protocol": "Examples of the adipogenic effects of RHAMM antagonists (peptide B (SEQ ID NO: 2), peptide P15-1 (SEQ ID NO. 1), and the antibody to peptide B) are summarized in Table 1. Peptide P15-1, peptide B, and a RHAMM antibody were assayed for their effects on pre-adipocyte stem cells in culture and when injected into the dermis of aged rats. Reagents were ranked on a scale of 0-5 with 5 representing the highest possible score and a completely filled in Harvey ball. “2D” refers to two-dimensional tissue culture.\nIn FIGS. 5A and 5B, data are shown as a ratio of the area (“surface area”) of fat pads expressed as a ratio of experimental/control values.\nThe 6-mer (KSEVSK; SEQ ID NO: 3) was tested for adipogenic effect in rat skin in vivo. The results of this testing are shown in the photographs in FIG. 10."}, "[2]": {"tested_on": "human subcutaneous pre-adipocytes", "assay": "Differentiation of human subcutaneous pre-adipocytes", "type": "cell-based", "settings": "for adipogenesis, Oil Red O staining, absence of both insulin and PPARγ agonist: FIGS. 23, 24; for adipogenesis, extracted Oil Red O: experimental cocktail lacked PPARγ agonist and insulin", "excerpt": "As noted above, this adipogenic cocktail contained pantothenate, dexamethasone, isobutylmethylxanthine (IBMX), human insulin and a PPARγ agonist. For these experiments, the following conditions were used as negative controls: (1) Preadipocyte Medium only; (2) the adipogenic cocktail without PPARγ agonist (PPARγ-); and (3) the adipogenic cocktail without PPARγ agonist or human insulin.\nThe positive control for FIG. 21 was the complete adipogenic medium containing both the PPARγ agonist and insulin: The experimental cocktail contained the B peptide or the KSEVSK 6-mer, but lacked PPARγ agonist and insulin. Adipogenesis levels were quantified by measuring extracted Oil Red 0.\nThe following conditions were used as negative controls: (Ctr no-γ)=monolayers cultured in adipogenic cocktail but without PPARγ agonist, (Ctr no-γ, no-Ins)=monolayers cultured in adipogenic cocktail but without PPARγ agonist or human insulin. To test the adipogenic activity of the KSEVSK 6-mer and B peptides, the human pre-adipocytes were exposed to the above negative controls plus either the KSEVSK 6-mer or the B peptide at concentrations of 5 μg/ml and 20 μg/ml. Statistical analysis were performed compared to negative control. Data presented as mean±standard error (n=3)"}, "[3]": {"tested_on": "human reticular fibroblasts (HRF)", "assay": "Transdifferentiation of primary human dermal fibroblasts, reticular", "type": "cell-based", "settings": "5 μg/ml, peptide replaced insulin", "protocol": "(§1) The B peptide and the KSEVSK 6-mer were also tested for their adipogenic effect on primary human dermal fibroblasts from the upper (papillary) and lower (reticular) dermal layers. The primary human fibroblasts were obtained from dermatome sections of biopsies from human volunteers. Cells were cultured and exposed to adipogenic medium. In these experiments, the B peptide and the KSEVSK 6-mer replaced insulin as the adipogenic stimulus. The peptides were used at a concentration of 5 μg/ml. Adipogenesis was assessed by Oil Red O staining. […] White arrows show fat droplets."}, "[4]": {"tested_on": "human papillary fibroblasts (HPF)", "assay": "Transdifferentiation of primary human dermal fibroblasts, papillary", "type": "cell-based", "settings": "5 μg/ml; peptide replaced insulin", "protocol": "as §1"}}, "note": "Entries after “also recorded” stand apart in the source; their conditions may differ."}
{"substance": "KLKDENSQLKSEVSK [peptide B]", "values": [{"measurement": "Fold adipogenic induction vs. negative control", "setting": "[1]", "result": 4.0}, {"measurement": "Specific activity (activity/1000 daltons)", "setting": "[1]", "result": 2.17, "unit": "activity/1000 daltons"}, {"measurement": "fat accumulation (fat pads)", "setting": "Rat skin; 25-50 μg/injection site", "result": "induced significant fat accumulation"}, {"measurement": "animals in which reagent was most effective (fat pad surface area, experimental/control)", "setting": "Rat skin; FIGS. 5A and 5B", "result": "most effective in old females"}, {"measurement": "adipogenic potential, In vivo Rat skin", "setting": "Rat skin; injected into the dermis of aged rats, scale of 0-5, 5 highest", "result": 5}, {"measurement": "adipogenesis, Oil Red O staining, absence of both insulin and PPARγ agonist", "setting": "[2]", "result": "stimulates adipogenesis"}, {"measurement": "adipogenesis, extracted Oil Red O", "setting": "[2]", "result": "significantly (p<0.05) increased adipogenesis above the negative control levels"}, {"measurement": "transdifferentiation into adipocytes, Oil Red O staining", "setting": "[3]; listed as B peptide", "result": "stimulated the transdifferentiation; also recorded: stimulated the trans-differentiation"}, {"measurement": "transdifferentiation into adipocytes, Oil Red O staining", "setting": "[4]", "result": "had no effect"}]}
{"substance": "KSEVSK [KSEVSK 6-mer]", "values": [{"measurement": "Fold adipogenic induction vs. negative control", "setting": "[1]", "result": 2.5}, {"measurement": "Specific activity (activity/1000 daltons)", "setting": "[1]", "result": 3.32, "unit": "activity/1000 daltons"}, {"measurement": "fat pad induction in rat skin in vivo", "setting": "Rat skin; FIG. 10", "result": "able to induce large fat pads, possibly larger than peptide B"}, {"measurement": "adipogenesis, Oil Red O staining, absence of PPARγ agonist", "setting": "[2]; FIG. 22", "result": "stimulates adipogenesis"}, {"measurement": "adipogenesis, Oil Red O staining, absence of both insulin and PPARγ agonist", "setting": "[2]", "result": "stimulates adipogenesis"}, {"measurement": "adipogenesis, extracted Oil Red O", "setting": "[2]", "result": "significantly (p<0.05) increased adipogenesis above the negative control levels"}, {"measurement": "transdifferentiation into adipocytes, Oil Red O staining", "setting": "[3]", "result": "stimulated the transdifferentiation"}, {"measurement": "transdifferentiation into adipocytes, Oil Red O staining", "setting": "[4]", "result": "had no effect"}]}
